Source: article PMC7181660, “A novel specific PERK activator reduces toxicity and extends survival in Huntington's disease models” (Scientific Reports, 2020)
Like-named read-outs stand apart in the source and are kept apart here.

What was measured:
Assay in all cases: biochemical
Type in all cases: biochemical
panel of 391 kinases [1] = molecular target: panel of 391 kinases (Homo sapiens, UniProt P08581); details: c-MET, MK-28 1 µM, ATP 1 µM
panel of 391 kinases [2] = molecular target: panel of 391 kinases (Homo sapiens, UniProt Q13464); details: ROCK1, MK-28 1 µM, ATP 1 µM
panel of 391 kinases [3] = molecular target: panel of 391 kinases (Homo sapiens, UniProt Q15119); details: kinase PDK2/PDHK2, compound at 1 µM, single dose in duplicates, 1 µM ATP
panel of 391 kinases [4] = molecular target: panel of 391 kinases (Homo sapiens, UniProt P08922); details: ROS/ROS1, MK-28 1 µM, ATP 1 µM
panel of 391 kinases [5] = molecular target: panel of 391 kinases (Homo sapiens, UniProt Q9H2X6); details: HIPK2, MK-28 1 µM, ATP 1 µM
panel of 391 kinases [6] = molecular target: panel of 391 kinases (Homo sapiens, UniProt P37023); details: ALK1/ACVRL1, MK-28 1 µM, ATP 1 µM
panel of 391 kinases [7] = molecular target: panel of 391 kinases (Homo sapiens, UniProt Q16513); details: PKN2/PRK2, MK-28 1 µM, ATP 1 µM
panel of 391 kinases [8] = molecular target: panel of 391 kinases (Homo sapiens, UniProt Q12866); details: c-MER, MK-28 1 µM, ATP 1 µM
panel of 391 kinases [9] = molecular target: T1, panel of 391 kinases (Homo sapiens, UniProt Q9NR20); details: DYRK4, MK-28 1 µM, ATP 1 µM
T1 sequence (Q9NR20 1-520): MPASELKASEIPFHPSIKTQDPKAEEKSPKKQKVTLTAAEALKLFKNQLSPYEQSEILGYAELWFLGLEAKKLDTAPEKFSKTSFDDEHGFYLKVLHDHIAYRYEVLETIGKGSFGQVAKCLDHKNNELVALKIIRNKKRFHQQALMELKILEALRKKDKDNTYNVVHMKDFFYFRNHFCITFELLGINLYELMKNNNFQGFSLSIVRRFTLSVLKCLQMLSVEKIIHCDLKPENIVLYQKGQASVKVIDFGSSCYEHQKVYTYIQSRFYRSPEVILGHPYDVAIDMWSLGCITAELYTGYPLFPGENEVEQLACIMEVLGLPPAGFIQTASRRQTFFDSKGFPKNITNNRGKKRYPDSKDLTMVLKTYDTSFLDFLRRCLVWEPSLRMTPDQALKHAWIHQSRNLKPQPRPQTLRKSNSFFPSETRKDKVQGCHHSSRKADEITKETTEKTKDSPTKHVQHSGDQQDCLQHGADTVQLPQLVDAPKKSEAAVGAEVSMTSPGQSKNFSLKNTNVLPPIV

panel of 391 kinases [10] = molecular target: panel of 391 kinases (Homo sapiens, UniProt Q8TD08); details: ERK7/MAPK15, MK-28 1 µM, ATP 1 µM
panel of 391 kinases [11] = molecular target: panel of 391 kinases (Homo sapiens, UniProt Q04912); details: RON/MST1R, MK-28 1 µM, ATP 1 µM
panel of 391 kinases [12] = molecular target: panel of 391 kinases (Homo sapiens, UniProt Q13163); details: MEK5, MK-28 1 µM, ATP 1 µM
panel of 391 kinases [13] = molecular target: panel of 391 kinases (Homo sapiens, UniProt O15264); details: P38d/MAPK13, MK-28 1 µM, ATP 1 µM
panel of 391 kinases [14] = molecular target: panel of 391 kinases (Homo sapiens, UniProt P11802); details: MK-28 1 µM, ATP 1 µM; for remaining activity at 1 µM: read-out: % Enzyme Activity (relative to DMSO controls)
panel of 391 kinases [15] = molecular target: panel of 391 kinases (Homo sapiens, UniProt Q9Y243); details: AKT3, MK-28 1 µM, ATP 1 µM
panel of 391 kinases [16] = molecular target: panel of 391 kinases (Homo sapiens, UniProt P46734); details: MEK3, MK-28 1 µM, ATP 1 µM
panel of 391 kinases [17] = molecular target: panel of 391 kinases (Homo sapiens, UniProt O00141); details: SGK1, MK-28 1 µM, ATP 1 µM
panel of 391 kinases [18] = molecular target: panel of 391 kinases (Homo sapiens, UniProt Q13164); details: ERK5/MAPK7, MK-28 1 µM, ATP 1 µM
panel of 391 kinases [19] = molecular target: panel of 391 kinases (Homo sapiens, UniProt P36896); details: ALK4/ACVR1B, MK-28 1 µM, ATP 1 µM
panel of 391 kinases [20] = molecular target: panel of 391 kinases (Homo sapiens, UniProt O94804); details: LOK/STK10, MK-28 1 µM, ATP 1 µM
panel of 391 kinases [21] = molecular target: panel of 391 kinases (Homo sapiens, UniProt P16234); details: PDGFRa, MK-28 1 µM, ATP 1 µM
panel of 391 kinases [22] = molecular target: panel of 391 kinases (Homo sapiens, UniProt Q9P1W9); details: PIM2, MK-28 1 µM, ATP 1 µM
[23] = read-out: % Enzyme Activity (relative to DMSO controls)

`CN(/N=C\c1ccc(O)c(O)c1)c1nc(-c2ccccc2)cc(-c2ccccc2)n1` [MK-28] was tested, and the “% Enzyme Activity (relative to DMSO controls)” value (panel of 391 kinases [1]) was 96.37%, the remaining activity at 1 µM (panel of 391 kinases [1]; [23]) was 102% and the “% Enzyme Activity (relative to DMSO controls)” value (panel of 391 kinases [2]) was 94.86%. The remaining activity at 1 µM (panel of 391 kinases [2]; [23]) was 99.6%, the “% Enzyme Activity (relative to DMSO controls)” value (panel of 391 kinases [3]) was 99.55% and the remaining activity at 1 µM (panel of 391 kinases [3]; [23]) was 103%. The “% Enzyme Activity (relative to DMSO controls)” value (panel of 391 kinases [4]) was 99.57%, the remaining activity at 1 µM (panel of 391 kinases [4]; [23]) was 100% and the “% Enzyme Activity (relative to DMSO controls)” value (panel of 391 kinases [5]) was 122.10%. The remaining activity at 1 µM (panel of 391 kinases [5]; [23]) was 124%, the “% Enzyme Activity (relative to DMSO controls)” value (panel of 391 kinases [6]) was 91.36% and the remaining activity at 1 µM (panel of 391 kinases [6]; [23]) was 94.7%. The “% Enzyme Activity (relative to DMSO controls)” value (panel of 391 kinases [7]) was 111.91%, the remaining activity at 1 µM (panel of 391 kinases [7]; [23]) was 115% and the “% Enzyme Activity (relative to DMSO controls)” value (panel of 391 kinases [8]) was 97.57%. The remaining activity at 1 µM (panel of 391 kinases [8]; [23]) was 98.6%, the “% Enzyme Activity (relative to DMSO controls)” value (panel of 391 kinases [9]) was 99.42% and the remaining activity at 1 µM (panel of 391 kinases [9]; [23]) was 101%. For the same compound, the “% Enzyme Activity (relative to DMSO controls)” value (panel of 391 kinases [10]) was 103.38%, the remaining activity at 1 µM (panel of 391 kinases [10]; [23]) was 105% and the “% Enzyme Activity (relative to DMSO controls)” value (panel of 391 kinases [11]) was 102.49%. For the same compound, the remaining activity at 1 µM (panel of 391 kinases [11]; [23]) was 104%, the “% Enzyme Activity (relative to DMSO controls)” value (panel of 391 kinases [12]) was 100.81% and the remaining activity at 1 µM (panel of 391 kinases [12]; [23]) was 105%. The “% Enzyme Activity (relative to DMSO controls)” value (panel of 391 kinases [13]) was 103.63%, the remaining activity at 1 µM (panel of 391 kinases [13]; [23]) was 104% and the “% Enzyme Activity (relative to DMSO controls)” value (panel of 391 kinases [14]; CDK4/cyclin D1) was 95.51%. For the same compound, the remaining activity at 1 µM (panel of 391 kinases [14]; CDK4/cyclin D1) was 95.6%, the “% Enzyme Activity (relative to DMSO controls)” value (panel of 391 kinases [14]; CDK4/cyclin D3) was 98.69% and the remaining activity at 1 µM (panel of 391 kinases [14]; CDK4/cyclin D3) was 100%. For the same compound, the “% Enzyme Activity (relative to DMSO controls)” value (panel of 391 kinases [15]) was 81.92%, the remaining activity at 1 µM (panel of 391 kinases [15]; [23]) was 82.2% and the “% Enzyme Activity (relative to DMSO controls)” value (panel of 391 kinases [16]) was 88.71%. For the same compound, the remaining activity at 1 µM (panel of 391 kinases [16]; [23]) was 96.2%, the “% Enzyme Activity (relative to DMSO controls)” value (panel of 391 kinases [17]) was 103.26% and the remaining activity at 1 µM (panel of 391 kinases [17]; [23]) was 108%. For the same compound, the “% Enzyme Activity (relative to DMSO controls)” value (panel of 391 kinases [18]) was 118.22%, the remaining activity at 1 µM (panel of 391 kinases [18]; [23]) was 119% and the “% Enzyme Activity (relative to DMSO controls)” value (panel of 391 kinases [19]) was 89.88%. The remaining activity at 1 µM (panel of 391 kinases [19]; [23]) was 92.3%, the “% Enzyme Activity (relative to DMSO controls)” value (panel of 391 kinases [20]) was 100.78% and the remaining activity at 1 µM (panel of 391 kinases [20]; [23]) was 101%. For the same compound, the “% Enzyme Activity (relative to DMSO controls)” value (panel of 391 kinases [21]) was 97.43%, the remaining activity at 1 µM (panel of 391 kinases [21]; [23]) was 97.7% and the “% Enzyme Activity (relative to DMSO controls)” value (panel of 391 kinases [22]) was 99.13%. It also gave a remaining activity at 1 µM (panel of 391 kinases [22]; [23]) of 102%.
